Legend:
aphids = conditions: dose of 100 ng/aphid; cited from earlier work
whiteflies = conditions: vapor; cited from earlier work
[1] = biological target: T1, recombinant (E)-β-farnesene synthase (SEQ ID NO:2) (Mentha piperita, UniProt O48935); assay: Kinetic characterization of recombinant, partially purified (E)-β-farnesene synthase (sesquiterpene/monoterpene/diterpene synthase assay); assay type: biochemical, peppermint (Mentha piperita)
T1 construct: made in house; host or cells: E. coli XL1-Blue harboring pBluescript clone p43
T1 sequence (O48935 1-550): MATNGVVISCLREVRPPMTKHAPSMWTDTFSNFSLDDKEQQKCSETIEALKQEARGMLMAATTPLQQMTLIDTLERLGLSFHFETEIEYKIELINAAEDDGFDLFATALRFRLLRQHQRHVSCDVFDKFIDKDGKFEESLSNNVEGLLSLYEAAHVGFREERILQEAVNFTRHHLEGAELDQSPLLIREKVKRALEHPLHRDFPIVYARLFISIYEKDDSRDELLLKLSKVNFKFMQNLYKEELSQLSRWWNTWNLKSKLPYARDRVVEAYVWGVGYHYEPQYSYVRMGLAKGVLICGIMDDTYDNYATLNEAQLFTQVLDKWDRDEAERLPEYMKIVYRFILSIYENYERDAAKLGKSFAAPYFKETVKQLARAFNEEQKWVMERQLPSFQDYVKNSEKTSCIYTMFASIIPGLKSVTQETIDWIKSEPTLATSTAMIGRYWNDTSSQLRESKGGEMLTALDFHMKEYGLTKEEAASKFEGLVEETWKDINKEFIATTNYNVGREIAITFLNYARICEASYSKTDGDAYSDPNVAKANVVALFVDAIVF
Method: (§1) Cell-Free Assays. […] The sonicate was centrifuged at 3700×g for 15 minutes, and an aliquot of the supernatant was then placed in a 10 ml screw-capped glass test tube containing divalent metal ions (10 mM MgCl2 and 1 mM MnCl2) and substrate (7.3 μM [1-^3H]FDP). The aqueous layer was overlaid with 1 ml pentane and the seated tube was incubated at 30° C. for two hours. The pentane overlay was then collected and the aqueous layer was extracted twice (1 ml) with pentane. The combined pentane extracts were passed through an anhydrous MgSO4-silica gel column to obtain the labeled hydrocarbon fraction for GC-MS analysis, or for radio-GC analysis using peppermint oil as an internal standard.
(§2) The chilled sonicate was cleared by centrifugation and the supernatant was assayed for sesquiterpene synthase activity as before, or for monoterpene synthase activity (with 4.5 μM [1-^3H]GDP) or diterpene synthase activity (with 10 μM [1-^3H]GGDP). In all cases, the pentane-soluble reaction products were purified by MgSO4-silica gel chromatography, as above, to prepare the olefin fraction for further analysis.
(§3) For determination of the pH optimum of (E)-β-farnesene synthase (SEQ ID NO:2), the preparation was adjusted with 50 mM Mopso (to a pH of 6.5, 6.75, 7.0, 7.25, 7.5, 8.0, or 8.5) before the assay. Kinetic constants for FDP, GDP, Mg^++ and Mn^++ were determined using a preparation of (E)-β-farnesene synthase (SEQ ID NO:2) that was partially purified by anion-exchange chromatography (on a Mono-Q column (Pharmacia) equilibrated with assay buffer and eluted with a linear KCl gradient (0 to 500 mM) in assay buffer). The 210-230 mM fraction containing the (E)-β-farnesene synthase (SEQ ID NO:2) was used for kinetic evaluation of FDP and GDP as substrates (concentration range 0.31 to 20 μM, with saturating Mg^++). […] Kinetic constants for Mg^++ and Mn^++ (assay range 1 μM to 2 mM of the chloride salts) were then determined at 7.3 μM [1-^3H]FDP. […]

[2] = substrate: CC(C)=CCC/C(C)=C/CC/C(C)=C/CO[P@@](=O)(O)OP(=O)(O)O; assay: as above; assay type: biochemical, peppermint (Mentha piperita); conditions: other: substrate range 0.31 to 20 μM, saturating Mg++; double reciprocal plot
Method: as §1, §2, §3

For `C=CC(=C)CC/C=C(\C)CCC=C(C)C` [(E)-β-farnesene], the “acute toxicity to aphids” value (aphids) is given as “acutely toxic” and the toxicity to whiteflies (whiteflies) is given as “toxic”.

For `CC(C)=CCC/C(C)=C/CC/C(C)=C/CC/C(C)=C/COP(=O)(O)OP(=O)(O)O` [[1-^3H]GGDP, geranylgeranyl diphosphate], the “activity of the synthase with the substrate analog” value ([1]; C20 substrate analog, 10 μM) was “inactive”.

Work on `CC(C)=CCC/C(C)=C/COP(=O)(O)OP(=O)(O)O` [GDP, geranyl diphosphate] yielded a Km ([1]; substrate range 0.31 to 20 μM, saturating Mg++, double reciprocal plot) of 1.5 µM.

B1: recombinant (E)-β-farnesene synthase (SEQ ID NO:2) (Mentha x piperita) (protein)
chain: T1 sequence (O48935 1-550)
notes: made in house; host or cells: E. coli XL1-Blue harboring pBluescript clone p43
In the case of B1, the Km [2] is reported as 0.6 µM.

From patent US6846659B2, “Isolation and bacterial expression of a sesquiterpene synthase cDNA clone from peppermint (Mentha x piperita, L.) that produces the aphid alarm pheromone (E)-β-farnesene” (Washington State University Research Foundation, priority 1997, dated 2005)
